Assay type in all cases: cell-based
The test system of series [1] is rat neuroid cells B50. In words: Toxicity evaluation on byproducts after reaction with singlet oxygen. Particulars: byproducts after reaction with singlet oxygen, 50, 100, or 200 μmol/1, FIG. 6. On the procedure: In a cell-free system, the RB was added to media (5% FCS-containing RPMI-1640 media) containing edaravone, ED2AP, and BisEp-C3 having a predetermined concentration (50, 100, or 200 μmol/1) and then irradiated with LED (G-LED) at 525 nm to generate singlet oxygen, whereby reacting each compound with singlet oxygen. The cell viability was measured in the same manner as in Example 7(1), except that the culture solution after the reaction was used as a medium of the neuroid cell B50. As a negative control (NC), the cell viability was measured in the same manner except that each compound and […] were not added in the cell-free system. Further, as a control (RB), the cell viability was measured in the same manner except that each compound was not added and only […] was added in the cell-free system.

Series [2] relates to rat neuroid cells B50. Kind of series: Toxicity evaluation, cell viability by Alamar Blue. Conditions: 12.5, 25, 50, 100, or 200 μmol/1, 24 hours, FIG. 5. As to the method:
Rat neuroid cells B50 were seeded in 12-well plates and then cultured. Edaravone (RC), ED2AP, or BisEp-C3 was added to each well so as to achieve a predetermined concentration (12.5, 25, 50, 100, or 200 μmol/1), and then incubated for 24 hours at 37° C. and 5% CO2. Cell viability in each well after the culture was measured using Alamar Blue.
(Resazurin is reduced to fluorescent resorufin, in cell work by metabolically active cells.)

Series [3] deals with rat neuroid cells B50. In words: Cytoprotection against singlet oxygen (Rose Bengal + G-LED), Alamar Blue fluorescence. Particulars: 0, 12.5, 25, 50, or 100 μmol/1, RB 200 nmol/1 + G-LED 5 minutes, negative control being 100, FIG. 3. As to the method:
Edaravone, ED2AP and BisEp-C3 were examined for whether they had the function of alleviating neuronopathy. Specifically, singlet oxygen was generated by combining Rose Bengal (RB), which is a sensitizer, with green light (G-LED), and the function of alleviating the cytotoxicity of the generated singlet oxygen was examined with the cellular activity being an indicator.
First, rat neuroid cells B50 were cultured in 12-well dishes at 2×10^5 cells/well (medium: RPMI-1640 medium containing 5% FCS) overnight. After the culturing, the medium of each well was replaced with HBSS (1,000 μl/well; phenol red-free Ca+, Mg+) containing 200 nmol/1 RB and edaravone, ED2AP, or BisEp-C3 having a predetermined concentration (0, 12.5, 25, 50, or 100 μmol/1). The dish was then irradiated with G-LED for 5 minutes to generate singlet oxygen. Thereafter, the medium of each well was replaced with 1,000 μl of HBSS, and Alamar Blue was added. The dish was then allowed to react for about 2 hours in an incubator at 37° C. and 5%CO2. After the reaction, fluorescence intensity (excitation wavelength: λ- 560 nm, fluorescence wavelength: λ-595 nm) was measured with a plate reader (infinite200, Tecan Trading AG). In this experimental system, the higher the cellular activity, the more Alamar Blue is taken up and the higher the fluorescence intensity. As a control, fluorescence intensity was measured in the same manner except that sodium azide (Azide, NaN3) was added instead of the compounds so as to achieve a concentration of 4 mmol/1. As a negative control (NC), fluorescence intensity was measured in the same manner except that RB was not added. The relative value of the fluorescence intensity in the sample to which each compound was added was calculated with the fluorescence intensity of the negative control being 100.

On to `CC1=NN(c2ccccc2)C(=O)C1` [Edaravone, 3-methyl-1-phenyl-5-pyrazolone, reference compound], for which, in the series with rat neuroid cells B50 [1], the “cell viability (cytotoxicity of byproducts)” value was “not cytotoxic at any concentration”. Besides, in the series with rat neuroid cells B50 [2], the “cell viability (cytotoxicity)” value is recorded as “not cytotoxic at any concentration”. In addition, the “relative value of the fluorescence intensity” value with rat neuroid cells B50 [3] was “not recovered”.

The values are drawn from patent US12569470B2, “Vasodilator and use thereof” (Bioradical Research Institute Corp., priority 2019, dated 2026).
